Data set [1] deals with PpIX in MKN45 cells. Put plainly: Photobleaching inhibitory effect for PpIX produced from ALA in cells with gallic acids or other reductants (Example 1). The data set is classed as cell-based. Conditions: excitation 400 nm, fluorescence 635 nm; for photobleaching inhibitory effect for PpIX: 1 mM ALA 24 h, reductant in 50% glycerol PBS (NPG 2%, PPD 0.5%, DABCO 5%, Prolong Gold as sold), 0-180 s. The procedure:
(§1) MKN45 cells were seeded in a 35 mm dish at 0.5×10^6 cells, and the culture medium on the 35 mm dish was 2 mL. Ten μL of 0.2 M ALA hydrochloride (5-aminolevulinic acid hydrochloride) solution was added to the 2 mL of culture medium in the 35 mm dish to achieve the final concentration of ALA in the culture medium at 1 mM. This 35 mm dish was cultured in a 5% CO2 incubator at 37° C. for 24 hours. The cells were then washed with 1 ml of PBS, 1 mL of each of the following reductant solutions (dissolved in 50% glycerol PBS solution) were added on ice, the cells were immediately scraped off with a cell scraper, and the cells were suspended by pipetting. The fluorescence intensity at 635 nm of each of these cell suspensions under the excitation light at 400 nm was measured. The fluorescence intensity was measured from 0 seconds post irradiation of excitation light for every 10 seconds until 180 seconds post irradiation. Not limited to Example 1, the measurement of fluorescence intensity was performed with irradiation of the excitation light even after the 0 seconds post irradiation of excitation light.
The following were employed at the following final concentrations as each reductant:
Paraphenylenediamine (hereinafter abbreviated as “PPD”): 0.5%
n-propyl gallate (hereinafter abbreviated as “NPG”): 2%
1-4-diazabicyclo[2.2.2]-octane (hereinafter abbreviated as “DABCO”): 5%
Prolong Gold™: approximately 1% as the active ingredient sodium azide
Since Prolong Gold (an anti-fade agent from Invitrogen) was sold as a solution containing approximately 1% of sodium azide, it was added directly as the commercially available solution without employing 50% glycerol/PBS to carry out the investigation.

The subject of data set [2] is PpIX in MKN45 cells. As to the kind of experiment: PpIX fluorescence half-life in ALA-loaded cells with 1% NPG at varied excitation light intensity (Example 3). The data set is classed as cell-based. The procedure: as §1
In a method similar to Example 1, 1 mL of 1% n-propyl gallic acid (NPG) solution was added, and the intensity of the excitation light was altered to 0.1 mA, 0.2 mA, 0.3 mA, and 0.4 mA to measure the fluorescence intensity.

Data set [3] can be described thus: Photobleaching inhibitory effect for porphyrins by each alkyl gallate in solution (Example 4). The data set is classed as physicochemical. Particulars: 50 mM alkyl gallate, 1 μM PpIX; for t/2 of PpIX fluorescence intensity: excitation 402 nm, 0.4 mA, pseudo-first-order. The procedure:
The photobleaching inhibitory effect for porphyrins by gallic acids was measured with the following procedure. Methyl gallate (MeG, from Wako, Cat. No. 134-09812), butyl gallate (BuG, from Wako, Cat. No. 322-67472), n-propyl gallate (PrG, from Wako, Cat. No. 162-06832), and octyl gallate (OcG, from Wako, Cat. No. 322-56482) were employed as gallic acids. The gallic acids employed here are all compounds having a linear alkyl.
(§2) (1) In order to prepare 50 mM solutions of each alkyl gallate, 0.3 mmol of each alkyl gallate was placed in a 15 mL tube, and 6 mL of 50% glycerol PBS solution (a mixture of glycerol and PBS at a proportion of 1:1, hereinafter may be notated as “Gly+PBS” or “Gly+PBS solution”) or DMSO was added and dissolved.
(3) After dispensing 990 μL of alkyl gallate into a 2 mL vial, 10 μL of 100 μM PpIX was added (final concentration of PpIX at 1 μM).
(4) Measurement of the fluorescence spectrum was performed for each alkyl gallate+PpIX solution prepared in (3) with a simplified fluorescence measurement device. LED was employed as the light source, the wavelength of the excitation light employed was 402 nm, the output current was set at 0.4 mA, and the measurement interval was every 10 seconds until 180 seconds for measurement.
For each of the plots above in FIG. 14 and FIG. 15 when a Gly+PBS solution and a DMSO solution was employed as the solvent for gallic acid, the relative fluorescence intensity was calculated by setting the fluorescence intensity immediately post irradiation (0 seconds later) as 1, and the transition of fluorescence intensity of PpIX was plotted with the calculated relative intensity as the vertical axis as shown in FIG. 16 and FIG. 17, respectively. This transition of relative fluorescence intensity was treated as a pseudo-first-order reaction to determine the half-life, and shown in Table 2 and Table 3, respectively.

Data set [4] has as its system PpIX in MKN45 cells. As to the kind of experiment: Photobleaching inhibitory effect for PpIX produced from ALA in cells with other reductants (Example 2). The data set is classed as cell-based. Particulars: 1 mM ALA 24 h, ascorbic acid 500 μM, tocopherol 500 μM, lutein 10 μM in PBS, excitation 400 nm, fluorescence 635 nm, 0-180 s. The procedure:
Photobleaching suppression effect for PpIX was measured for other reductants. The following were employed as the reductants. Each reductant solution was prepared by the following method and each of the prepared solutions was used as sample solvents for photobleaching measuring.
Solution supplemented with 5 μL of ascorbic acid (solvent: milli Q, concentration of supplemented solution: 100 mM) was added to 1 mL of PBS to prepare an ascorbic acid solution having a final concentration of 500 μM.
Solution supplemented with 5 μL of tocopherol (solvent: DMSO, concentration of supplemented solution: 100 mM) was added to 1 mL of PBS to prepare a tocopherol solution having a final concentration of 500 μM.
Solution supplemented with 5 μL of lutein (solvent: DMSO, concentration of supplemented solution: 2 mM) was added to 1 mL of PBS to prepare a lutein solution having a final concentration of 10 μM.
MKN45 cells were seeded in a 35 mm dish at 0.5×10^6 cells, and the culture medium on the 35 mm dish was 2 mL. Ten μL of 0.2 M ALA hydrochloride (5-aminolevulinic acid hydrochloride) solution was added to the 2 mL of culture medium in the 35 min dish to achieve the final concentration of ALA in the culture medium at 1 mM. This 35 mm dish was cultured in a 5% CO2 incubator at 37° C. for 24 hours. The cells were then washed with 1 ml of PBS, and then 1 mL of each of the reductant solutions prepared as above were added, the cells were immediately scraped off with a cell scraper, and the cells were suspended by pipetting. The fluorescence intensity at 635 nm of each of these cell suspensions under the excitation light at 400 nm was measured. The fluorescence intensity was measured from 0 seconds post irradiation of excitation light for every 10 seconds until 180 seconds post irradiation. The measurement of fluorescence intensity was performed with irradiation of the excitation light even after the 0 seconds post irradiation of excitation light.

Data set [5] in a line: Dissolution of alkyl gallates at 50 mM in Gly+PBS or DMSO. The data set is classed as physicochemical. Conditions: for solubility in Gly+PBS solution: 0.3 mmol in 6 mL (50 mM) 50% glycerol PBS. The procedure: as §2
Data set [6] can be described thus: Absorption spectrum 350 nm-750 nm of alkyl gallate solutions. The data set is classed as physicochemical. Particulars: 50 mM alkyl gallate solution. The procedure:
(2) Measurement of the absorption spectrum at 350 nm-750 nm was performed with 1000 μL of each alkyl gallate solution prepared in (1).
Since the fluorescent substance protoporphyrin IX (PpIX) has a sharp absorbance at around 400 nm, and a light at around 400 nm is employed as the excitation light, it was deemed possible that excitation of PpIX could be inhibited when employing butyl gallate.

[7] abbreviates: Gly + PBS solution, fluorescence 627 nm.

“Also recorded” adds a separate entry of the source.

As to `Nc1ccc(N)cc1` [PPD, Paraphenylenediamine], the “photobleaching inhibitory effect for PpIX” value in data set [1] is recorded as “a state of high fluorescence intensity as with NPG could not be maintained; also recorded: no or almost no effect”. In addition, the “fluorescence intensity at 0 seconds post irradiation of excitation light” value in data set [1] (1 mM ALA, PPD 0.5%) was “markedly reduced”.
In the case of `CCCOC(=O)c1cc(O)c(O)c(O)c1` [NPG, n-propyl gallate], the “photobleaching inhibitory effect for PpIX” value in data set [1] is listed as “superior photobleaching inhibitory effect was observed”. Besides, the “fluorescence intensity after 180 seconds post irradiation, relative to control at 0 seconds” value in data set [1] (1 mM ALA, NPG 2%) is “about half”. Moreover, the “duration of fluorescence in fluorescence microscope images” value in data set [2] (1% NPG vs vehicle, 0, 1, 2, 3 minutes post irradiation (FIG. 4)) is given as “fluorescence was maintained for a longer duration”. For the same compound, the “prolongation of half-life versus vehicle” value in data set [2] (excitation light 0.4 mA, NPG 1%) was “three folds”. Moreover, the “fluorescence intensity of PpIX after 30 seconds and 60 seconds relative to 0 seconds” value in data set [3] (DMSO solution) and in data set [3] (Gly+PBS solution) was “only modestly reduced” in each case. The “t/2 of PpIX fluorescence intensity” value amounted to 231.0 s in data set [3] (DMSO, fluorescence 632 nm) and 239.0 s in data set [3] (setting [7]).
With `O=C1O[C@H]([C@@H](O)CO)C(O)=C1O` [ascorbic acid], the “effect of inhibiting photobleaching of PpIX” value in data set [4] is recorded as “do not have the effect of inhibiting photobleaching; also recorded: no or almost no effect”.
As for `C1CN2CCN1CC2` [DABCO, 1-4-diazabicyclo[2.2.2]-octane], the “photobleaching inhibitory effect for PpIX” value in data set [1] is “insufficient; also recorded: no or almost no effect”.
For tocopherol, the “effect of inhibiting photobleaching of PpIX” value in data set [4] is recorded as “do not have the effect of inhibiting photobleaching; also recorded: no or almost no effect”.
As for `COC(=O)c1cc(O)c(O)c(O)c1` [MeG, Methyl gallate], the “fluorescence intensity of PpIX after 30 seconds and 60 seconds relative to 0 seconds” value in data set [3] (DMSO solution) and in data set [3] (Gly+PBS solution) was “only modestly reduced” in each case. Further, the “t/2 of PpIX fluorescence intensity” value in data set [3] (DMSO, fluorescence 632 nm) stood at 239.0 s; in data set [3] (setting [7]), 346.6 s.
As for `CCCCCCCCOC(=O)c1cc(O)c(O)c(O)c1` [OcG, octyl gallate], the “solubility in Gly+PBS solution” value in data set [5] was “could not be dissolved”. In data set [3] (DMSO solution), the “fluorescence intensity of PpIX after 30 seconds and 60 seconds relative to 0 seconds” value is on record as “only modestly reduced”. Besides, the “t/2 of PpIX fluorescence intensity” value in data set [3] (DMSO, fluorescence 632 nm) was 239.0 s.
In the case of `CC1=C[C@H](O)CC(C)(C)[C@H]1/C=C/C(C)=C/C=C/C(C)=C/C=C/C=C(C)/C=C/C=C(C)/C=C/C1=C(C)C[C@@H](O)CC1(C)C` [lutein], in data set [4], the “effect of inhibiting photobleaching of PpIX” value is given as “do not have the effect of inhibiting photobleaching”.
For the compound `CCCCOC(=O)c1cc(O)c(O)c(O)c1` [BuG, butyl gallate], the “absorbance at around 400 nm” value in data set [6] is “found to have absorbance at around 400 nm”. Further, the “solubility in Gly+PBS solution” value in data set [5] is “able to dissolve”. In data set [5] (0.3 mmol in 6 mL (50 mM) DMSO), the “solubility in DMSO” value is “able to dissolve”. The “fluorescence intensity of PpIX after 30 seconds and 60 seconds relative to 0 seconds” value in data set [3] (DMSO solution) and in data set [3] (Gly+PBS solution) was “only modestly reduced” in each case. The “t/2 of PpIX fluorescence intensity” value in data set [3] (DMSO, fluorescence 632 nm) was 533.2 s; in data set [3] (setting [7]), 385.1 s.
